In US11781160B2, “Methods for the production of methacrylates” (priority 2018, dated 2023):

Tests used:
[1] = system: E. coli BW25113 isolate 23-soxR(R20L) rpoC(r1075C) 2133236( T> A) 3915915(T > G) acrR(indels); assay: Growth kinetics of isolated strain 23 with 20% v/v BMA
[2] = system: E. coli BW25113 isolate 21-marR(V84G) rpoC(R1075C) rpoC(A787V) ompR(R15S) acrB(V901l) acrR(indels); assay: Growth kinetics of isolated strain 21 with 20% v/v BMA
[3] = system: E. coli MG1655 soxR(R20H)acrR(V29G); assay: Growth in MSX medium with 20% (v/v) BMA, double mutant; assay type: cell-based, Escherichia coli
[4] = system: E. coli MG1655 soxR(R20H); assay: Growth in MSX medium with 20% (v/v) BMA, single mutant; assay type: cell-based, Escherichia coli; conditions: 20% (v/v) BMA added immediately after inoculation
[5] = system: E. coli BW25113 isolate 22-rob(R156H) rpoB(T1037P) groL(P279L) acrR(49Yfs) 1197659(C > A); assay: Growth kinetics of isolated strain 22 with 20% v/v BMA
[6] = system: E. coli MG1655; assay: Growth in MSX medium with 20% (v/v) BMA, wild type; assay type: cell-based, Escherichia coli
[7] = system: gene transcription in strain 18; assay: Transcriptome analysis with added BMA, strain 18
Experimental: (§1) Transcriptome analysis was carried out to characterize transcriptional activity in mutant microorganisms using standard methods.
(§2) Sample Preparation • 1) Streak strains onto fresh MSX agar (15 g/L) plates directly from the cryostocks and incubate overnight at 37° C. • 2) Isolate single colonies and inoculate pre-cultures in MSX, using 50 ml shake flasks. Incubate overnight at 37° C. and 250 rpm. • 3) Inoculate cultures in MSX to an initial OD600 of 0.05, using 250 mL pyrex shake flasks with 24/29 neck join. Incubate at 37° C. and 250 rpm. Do 4 biological replicates (3 replicates for sequencing plus one backup)—4 flasks per strain. • 4) Seal shake flasks with sterile Suba seals. To monitor OD, take samples using a sterile syringe and needle after first swabbing the Suba seals with 70% ethanol. Monitor OD. • 5) When OD reaches 0.3, collect first sample for RNA extraction (“before” sample) into a pre-chilled falcon. Keep samples on ice. • 6) Immediately after, add 20% (v/v) BMA. Re-incubate cultures. • 7) Quickly process the samples according to the RNeasy kit protocol, until step 6 of protocol 1. Always keep samples on ice and store it at −80° C. until further use, if possible, flash freeze in liquid nitrogen it before storing. • 8) One hour after the first sample collection/BMA addition, collect the second sample for RNA extraction (“after” sample). Proceed as explained before. • 9) Continue to monitor the OD until the cultures reach 24 h. • To summarise, each strain tested will have 6 samples to send for sequencing, 3 collected right before the addition and 3 collected one hour after, plus 1 “back-up” for before and after, in case something goes wrong during extraction (8 samples total). Besides the WT strain with the addition of BMA, samples were also collected from a WT culture with no BMA, one hour after reaching OD of 0.3, as a control.
(§3) Transcription was compared for a double mutant and the wild-type in the presence and absence of BMA relative to the level in the wild type in the absence of BMA. For the avoidance of doubt the level in the table is the ratio of the level in the strain under the BMA exposure relative to the level in the wild type in the absence of added BMA.

[8] = system: E. coli MG1655 soxR(R20H)acrR(T32fs); assay: Growth in MSX medium with 20% (v/v) BMA, double mutant; assay type: cell-based, Escherichia coli
[9] = system: E. coli BW25113 isolate 8-rob(R156H) rpoB(T1037P) torY(A87T) acrR(49Yfs); assay: Growth kinetics of isolated strain 8 with 20% v/v BMA
[10] = system: E. coli BW25113 isolate 19-marR(V84G) rpoC(R1075C) ompR(R15S) acrB(T3791) acrR(indels); assay: Growth kinetics of isolated strain 19 with 20% v/v BMA
[11] = system: E. coli BW25113 ΔsoxR; assay: Growth in MSX medium with 20% (v/v) BMA, knock-out strain; assay type: cell-based, Escherichia coli; conditions: 20% (v/v) BMA added immediately after inoculation
[12] = system: gene transcription in strain 2; assay: Transcriptome analysis with added BMA, strain 2
Experimental: as §1, §2, §3

[13] = system: gene transcription in strain 23; assay: Transcriptome analysis with added BMA, strain 23
Experimental: as §1, §2, §3

[14] = system: E. coli MG1655 acrR(V29G); assay: Growth in MSX medium with 20% (v/v) BMA, single mutation strain; assay type: cell-based, Escherichia coli; conditions: 20% (v/v) BMA added immediately after inoculation
[15] = 20% (v/v) BMA added during mid-exponential phase
[16] = 20% (v/v) BMA added immediately after inoculation

## C=C(C)C(=O)OCCCC [BMA, butyl 2-methylprop-2-enoate]
[1]
  Growth rate: 0.722 ± 0.019 h⁻¹
  Lag time: 4 h
  Max cell concentration: 0.529 ± 0.023 g/L
[2]
  Growth rate: 0.703 ± 0.030 h⁻¹
  Lag time: 5 h
  Max cell concentration: 0.438 ± 0.022 g/L
[3]; [15]
  Tolerance to BMA: enhanced tolerance to BMA compared to the soxR(R20H) mutation alone
[3]; [16]
  Growth compared with the single mutant with the soxR mutation: able to grow better than the single mutant
  Growth in the presence of BMA: able to grow
[4]
  Growth in the presence of BMA: able to grow
[5]
  Growth rate: 0.701 ± 0.015 h⁻¹
  Lag time: 4 h
  Max cell concentration: 0.523 ± 0.024 g/L
[6]; 20% (v/v) BMA added immediately after inoculation, WT
  Growth in the presence of BMA: unable to grow
[6]; MSX medium containing 20% (v/v) BMA, 30 mL vials, 37° C., 250 rpm
  Time after which growth was observed: 72 h
[7]
  IdhA transcription level relative to wild type without BMA: 56.74
  acrA transcription level relative to wild type without BMA: 6.47
  acrB transcription level relative to wild type without BMA: 10.12
  adiY transcription level relative to wild type without BMA: 21.13
  ariR transcription level relative to wild type without BMA: 25.19
  asr transcription level relative to wild type without BMA: 74.22
  bssR transcription level relative to wild type without BMA: 134.14
  ibpA transcription level relative to wild type without BMA: 74.55
  ibpB transcription level relative to wild type without BMA: 158.35
  narG transcription level relative to wild type without BMA: 25.46
  nirB transcription level relative to wild type without BMA: 23.98
  nirD transcription level relative to wild type without BMA: 34.98
  pspA transcription level relative to wild type without BMA: 20.71
  pspB transcription level relative to wild type without BMA: 20.94
  pspD transcription level relative to wild type without BMA: 18.60
  pspc transcription level relative to wild type without BMA: 21.37
  raiA transcription level relative to wild type without BMA: 44.16
  rmf transcription level relative to wild type without BMA: 20.96
  soxS transcription level relative to wild type without BMA: 1.17
  spy transcription level relative to wild type without BMA: 4.36
  ybfA transcription level relative to wild type without BMA: 24.95
  ybhG transcription level relative to wild type without BMA: 18.85
  ybiH transcription level relative to wild type without BMA: 12.75
  ydgU transcription level relative to wild type without BMA: 28.47
  yhjx transcription level relative to wild type without BMA: 251.44
  yibT transcription level relative to wild type without BMA: 83.81
  ymgA transcription level relative to wild type without BMA: 11.97
  ymgC transcription level relative to wild type without BMA: 12.62
  ynfM transcription level relative to wild type without BMA: 55.40
  yohk transcription level relative to wild type without BMA: 14.54
[8]; [15]
  Tolerance to BMA: enhanced tolerance to BMA compared to the soxR(R20H) mutation alone
[8]; [16]
  Growth compared with the single mutant with the soxR mutation: able to grow better than the single mutant
  Growth in the presence of BMA: able to grow
[9]
  Growth rate: 0.712 ± 0.015 h⁻¹
  Lag time: 5 h
  Max cell concentration: 0.435 ± 0.010 g/L
[10]
  Growth rate: 0.701 ± 0.007 h⁻¹
  Lag time: 5 h
  Max cell concentration: 0.653 ± 0.023 g/L
[11]
  Growth in the presence of BMA: unable to grow
[12]
  IdhA transcription level relative to wild type without BMA: 11.32
  acrA transcription level relative to wild type without BMA: 7.33
  acrB transcription level relative to wild type without BMA: 6.68
  adiY transcription level relative to wild type without BMA: 5.37
  ariR transcription level relative to wild type without BMA: 35.30
  asr transcription level relative to wild type without BMA: 95.27
  bssR transcription level relative to wild type without BMA: 15.30
  ibpA transcription level relative to wild type without BMA: 20.83
  ibpB transcription level relative to wild type without BMA: 84.03
  narG transcription level relative to wild type without BMA: 11.38
  nirB transcription level relative to wild type without BMA: 8.77
  nirD transcription level relative to wild type without BMA: 4.33
  pspA transcription level relative to wild type without BMA: 15.40
  pspB transcription level relative to wild type without BMA: 11.46
  pspD transcription level relative to wild type without BMA: 11.22
  pspc transcription level relative to wild type without BMA: 11.88
  raiA transcription level relative to wild type without BMA: 14.09
  rmf transcription level relative to wild type without BMA: 7.05
  soxS transcription level relative to wild type without BMA: 4.10
  spy transcription level relative to wild type without BMA: 22.92
  ybfA transcription level relative to wild type without BMA: 18.45
  ybhG transcription level relative to wild type without BMA: 6.87
  ybiH transcription level relative to wild type without BMA: 8.65
  ydgU transcription level relative to wild type without BMA: 31.80
  yhjx transcription level relative to wild type without BMA: 7.35
  yibT transcription level relative to wild type without BMA: 36.87
  ymgA transcription level relative to wild type without BMA: 35.59
  ymgC transcription level relative to wild type without BMA: 42.36
  ynfM transcription level relative to wild type without BMA: 14.42
  yohk transcription level relative to wild type without BMA: 8.45
[13]
  IdhA transcription level relative to wild type without BMA: 28.20
  acrA transcription level relative to wild type without BMA: 6.50
  acrB transcription level relative to wild type without BMA: 7.66
  adiY transcription level relative to wild type without BMA: 6.73
  ariR transcription level relative to wild type without BMA: 14.82
  asr transcription level relative to wild type without BMA: 123.20
  bssR transcription level relative to wild type without BMA: 71.61
  ibpA transcription level relative to wild type without BMA: 31.35
  ibpB transcription level relative to wild type without BMA: 41.67
  narG transcription level relative to wild type without BMA: 42.52
  nirB transcription level relative to wild type without BMA: 25.46
  nirD transcription level relative to wild type without BMA: 25.17
  pspA transcription level relative to wild type without BMA: 32.81
  pspB transcription level relative to wild type without BMA: 27.16
  pspD transcription level relative to wild type without BMA: 28.18
  pspc transcription level relative to wild type without BMA: 28.45
  raiA transcription level relative to wild type without BMA: 31.13
  rmf transcription level relative to wild type without BMA: 8.80
  soxS transcription level relative to wild type without BMA: 30.40
  spy transcription level relative to wild type without BMA: 4.79
  ybfA transcription level relative to wild type without BMA: 29.99
  ybhG transcription level relative to wild type without BMA: 20.82
  ybiH transcription level relative to wild type without BMA: 16.75
  ydgU transcription level relative to wild type without BMA: 50.45
  yhjx transcription level relative to wild type without BMA: 596.44
  yibT transcription level relative to wild type without BMA: 42.63
  ymgA transcription level relative to wild type without BMA: 8.84
  ymgC transcription level relative to wild type without BMA: 7.42
  ynfM transcription level relative to wild type without BMA: 41.92
  yohk transcription level relative to wild type without BMA: 10.04
[14]
  Growth in the presence of BMA: able to grow
